Values of other authors as cited in patent US8747895B2 (priority 2004, dated 2014).
Like-named read-outs stand apart in the source and are kept apart here.

Details: for absolute bioavailability: oral administration

(−)-N-Methyl-3-(o-tolyloxy)-propylamine hydrochloride [Atomoxetine]
absolute bioavailability (EMs (extensive metabolizers)): 63%
absolute bioavailability (PMs (poor metabolizers)): 94%
delay of Tmax with food (standard high-fat meal): 3 h
lower Cmax with food (standard high-fat meal): 10-37%
